Laboratory results as given in patent publication US11498920B2, “4-(1H-imidazol-5-yl)-1H-pyrrolo[2, 3-b] pyridines for use in the treatment of leukaemias, lymphomas and solid tumors” (MASARYKOVA UNIVERZITA, priority 2018, dated 2022).

Columns and labels:
primary CLL cells = assay: Cytotoxicity, TMRE flow cytometry viability, primary CLL cells (Example II.1); format: cell-based; details: Homo sapiens, CLL cell, 6 hours, TMRE positive cells normalized to control, ratio to PF670462, <1 = higher cytotoxicity than PF670462, read-out: Viability of cells, Compound of formula I (100 μM), relative to PF670462 (100 μM), CLL primary cells
Protocol: (§1) The leukemia and lymphoma-derived cell lines [MEC-1 cell line (derived from chronic lymphocytic leukemia—CLL), Nalm-16 (acute lymphocytic leukemia—ALL), K562 (chronic myeloid leukemia—CML), HL-60 (acute myeloid leukemia—AML), Maver-1 and Mino (mantle cell lymphoma—MCL), BL-41 (Burkitt lymphoma—BL), WSU-NHL (follicular lymphoma—FL), SUDHL (diffuse large B-cell lymphoma—DLBCL)], primary CLL cells and nonmalignant control primary cells were cultured in suspension in flasks under the following conditions: RPMI 1640 medium (Hyclone) supplemented with 10% fetal bovine serum (FBS, Gibco) and 1% penicillin/streptomycin (Life Technologies), 37° C., 5% CO2 and 95% relative humidity, with optimal culture cell density 5×10^6 cells/mL in case of primary cells and 0.5-1×10^6 cells/mL in case of cell lines. The adherent cell lines [A375 (derived from malignant melanoma), MDA-MB-231 and MCF-7 (breast cancer), MIA-PA-CA and PANC1 (pancreatic cancer), PC3 (prostate cancer), OVCAR4 (ovarian cancer) and HEPG2 (hepatocellular carcinoma)] were cultured on plates under the same conditions using RPMI1640 or DMEM medium (Gibco) according to instructions provided by the distributor (DSMZ/ATCC).
(§2) Cytotoxicity of compounds of formula I was tested in two models representative for leukemia (primary CLL cells) and lymphoma (Maver-1 cells). The primary CLL cells and Maver-1 cells (MCL-derived) were incubated with inhibitors at 100 μM concentration or corresponding amount of solvent (DMSO, Sigma Aldrich) as 0.1×10^6 cells/200 μl per well in a 96-well plate. Experiments were performed in technical duplicates. Viability of cells was assessed after 6 hours in case of primary CLL cells and after 24 hours in case of Maver-1 cells.
(§3) Apoptosis-induced reduction of mitochondrial potential is detected as lower TMRE fluorescence. […] Relative values are presented, showing ratio to the effect of PF670462 (as the closest prior art). Relative value <1 indicates a higher cytotoxicity than PF670462.

[1] = tested on: Maver-1 cells (mantle cell lymphoma); assay: Cytotoxicity, TMRE flow cytometry viability, Maver-1 cells (Example II.1); format: cell-based; details: Homo sapiens, Maver1, 24 hours, TMRE positive cells normalized to control, ratio to PF670462, <1 = higher cytotoxicity than PF670462, read-out: Viability of cells, Compound of formula I (100 μM), relative to PF670462 (100 μM), Maver-1 cells (mantle cell lymphoma)
Protocol: as §1, §2, §3

SMILES | viability at 100 µM (primary CLL cells) [%] | viability at 100 µM [1] [%]
Clc1cccc(-c2ncn(C3CCCCC3)c2-c2ccnc3[nH]ccc23)c1 [Preparative Example 5, 4-(4-(3-chlorophenyl)-1-cyclohexyl-1H-imidazol-5-yl)-1H-pyrrolo[2,3-b]pyridine] | 24 | 54
Brc1cccc(-c2ncn(C3CCCCC3)c2-c2ccnc3[nH]ccc23)c1 [Preparative Example 6, 4-(4-(3-bromophenyl)-1-cyclohexyl-1H-imidazol-5-yl)-1H-pyrrolo[2,3-b]pyridine] | 37 | 42
Clc1ccc(-c2ncn(C3CCCCC3)c2-c2ccnc3[nH]ccc23)c(Cl)c1 [Preparative Example 7] | 34 | 84
c1ccc(-c2ncn(C3CCCCC3)c2-c2ccnc3[nH]ccc23)cc1 [Preparative Example 8] | 32 | 4
Clc1ccc(-c2ncn(C3CCCCC3)c2-c2ccnc3[nH]ccc23)cc1 [Preparative Example 9, 4-(4-(4-chlorophenyl)-1-cyclohexyl-1H-imidazol-5-yl)-1H-pyrrolo[2,3-b]pyridine] | 50 | 30
Brc1ccc(-c2ncn(C3CCCCC3)c2-c2ccnc3[nH]ccc23)cc1 [Preparative Example 10, 4-(4-(4-bromophenyl)-1-cyclohexyl-1H-imidazol-5-yl)-1H-pyrrolo[2,3-b]pyridine] | 61 | 46
CC(C)(C)OC(=O)N1CCC(n2cnc(-c3ccc(F)cc3)c2-c2ccnc3[nH]ccc23)CC1 [Preparative Example 11, tert-butyl-4-(4-(4-fluorophenyl)-5-(1H-pyrrolo[2,3-b]pyridin-4-yl)-1H-imidazol-1-yl)piperidine-1-carboxylate] | 30 | 6
CN1CCC(n2cnc(-c3ccc(F)cc3)c2-c2ccnc3[nH]ccc23)CC1 [Preparative Example 14, 4-(4-(4-fluorophenyl)-1-(1-methylpiperidin-4-yl)-1H-imidazol-5-yl)-1H-pyrrolo[2,3-b]pyridine] | 77 | 70
Fc1ccc(-c2ncn(C3CCCCCC3)c2-c2ccnc3[nH]ccc23)cc1 [Preparative Example 19, 4-(1-cycloheptyl-4-(4-fluorophenyl)-1H-imidazol-5-yl)-1H-pyrrolo[2,3-b]pyridine] | 22 | 33
Fc1ccc(-c2ncn(Cc3ccccc3)c2-c2ccnc3[nH]ccc23)cc1 [Preparative Example 22, 4-(1-benzyl-4-(4-fluorophenyl)-1H-imidazol-5-yl)-1H-pyrrolo[2,3-b]pyridine] | 17 | 27
CC1(C)CC(Cn2cnc(-c3ccc(F)cc3)c2-c2ccnc3[nH]ccc23)C1 [Preparative Example 29, 4-(1-((3,3-dimethylcyclobutyl)methyl)-4-(4-fluorophenyl)-1H-imidazol-5-yl)-1H-pyrrolo[2,3-b]pyridine] | 21 | 3
COC(=O)[C@H]1CC[C@@H](n2cnc(-c3ccc(F)cc3)c2-c2ccnc3[nH]ccc23)CC1 [Preparative Example 33, Methyl cis-4-(4-(4-fluorophenyl)-5-(1H-pyrrolo[2,3-b]pyridin-4-yl)-1H-imidazol-1-yl)cyclohexane-1-carboxylate] | 63 | 12
COC(=O)[C@H]1CC[C@H](n2cnc(-c3ccc(F)cc3)c2-c2ccnc3[nH]ccc23)CC1 [Preparative Example 34, Methyl trans-4-(4-(4-fluorophenyl)-5-(1H-pyrrolo[2,3-b]pyridin-4-yl)-1H-imidazol-1-yl)cyclohexane-1-carboxylate] | 55 | 89
Fc1ccc(-c2ncn(C3CCC(F)(F)CC3)c2-c2ccnc3[nH]ccc23)cc1 [Preparative Example 35, 4-(1-(4,4-difluorocyclohexyl)-4-(4-fluorophenyl)-1H-imidazol-5-yl)-1H-pyrrolo[2,3-b]pyridine] | 60 | 44
Fc1ccc(-c2ncn([C@H]3CC[C@H](C(F)(F)F)CC3)c2-c2ccnc3[nH]ccc23)cc1 [Preparative Example 36] | 68 | 1
c1cc(-c2c(-c3ccsc3)ncn2C2CCCCC2)c2cc[nH]c2n1 [Preparative Example 42, 4-(1-cyclohexyl-4-(thiophen-3-yl)-1H-imidazol-5-yl)-1H-pyrrolo[2,3-b]pyridine] | 76 | 12
Fc1ccc(-c2ncn(-c3cccnc3)c2-c2ccnc3[nH]ccc23)cc1 [Preparative Example 50, 4-(4-(4-fluorophenyl)-1-(pyridin-3-yl)-1H-imidazol-5-yl)-1H-pyrrolo[2,3-b]pyridine] | 63 | 48
OCc1cc2c(-c3c(-c4ccc(F)cc4)ncn3C3CCCCC3)ccnc2[nH]1 [Preparative Example 56, (4-(1-cyclohexyl-4-(4-fluorophenyl)-1H-imidazol-5-yl)-1H-pyrrolo[2,3-b]pyridin-2-yl)methanol] | 67 | 79
COCc1cc2c(-c3c(-c4ccc(F)cc4)ncn3C3CCCCC3)ccnc2[nH]1 [Preparative Example 60, 4-(1-cyclohexyl-4-(4-fluorophenyl)-1H-imidazol-5-yl)-2-(methoxymethyl)-1H-pyrrolo[2,3-b]pyridine] | 93 | 84
CS(=O)(=O)N1CCC(n2cnc(-c3ccc(F)cc3)c2-c2ccnc3[nH]ccc23)CC1 [Preparative Example 69] | 84 | 85
CCOC(=O)N1CCC(n2cnc(-c3ccc(F)cc3)c2-c2ccnc3[nH]ccc23)CC1 [Preparative Example 70, Ethyl 4-(4-(4-fluorophenyl)-5-(1H-pyrrolo[2,3-b]pyridin-4-yl)-1H-imidazol-1-yl)piperidine-1-carboxylate] | 72 | 11
CNC(=O)N1CCC(n2cnc(-c3ccc(F)cc3)c2-c2ccnc3[nH]ccc23)CC1 [Preparative Example 71, 4-(4-(4-fluorophenyl)-5-(1H-pyrrolo[2,3-b]pyridin-4-yl)-1H-imidazol-1-yl)-N-methylpiperidine-1-carboxamide] | 87 | 87
CC(=O)N[C@H]1CC[C@@H](n2cnc(-c3ccc(F)cc3)c2-c2ccnc3[nH]ccc23)CC1 [Preparative Example 75, N-(cis-4-(4-(4-fluorophenyl)-5-(1H-pyrrolo[2,3-b]pyridin-4-yl)-1H-imidazol-1-yl)cyclohexyl)acetamide] | 83 | 66
Fc1ccc(-c2ncn(CCCOC(F)(F)F)c2-c2ccnc3[nH]ccc23)cc1 [Preparative Example 80] | 49 | 42
Fc1ccc(-c2ncn(Cc3cccs3)c2-c2ccnc3[nH]ccc23)cc1 [Preparative Example 84, 4-(4-(4-fluorophenyl)-1-(thiophen-2-ylmethyl)-1H-imidazol-5-yl)-1H-pyrrolo[2,3-b]pyridine] | 48 | 8
Fc1ccc(-c2ncn(Cc3ccc(OC(F)(F)F)cc3)c2-c2ccnc3[nH]ccc23)cc1 [Preparative Example 85] | 1 | 4
Fc1ccc(-c2ncn(CCc3ccccc3)c2-c2ccnc3[nH]ccc23)cc1 [Preparative Example 87, 4-(4-(4-fluorophenyl)-1-phenethyl-1H-imidazol-5-yl)-1H-pyrrolo[2,3-b]pyridine] | 10 | 3
Fc1ccc(-c2ncn(CC3CCCCC3)c2-c2ccnc3[nH]ccc23)cc1 [Preparative Example 88, 4-(1-(cyclohexylmethyl)-4-(4-fluorophenyl)-1H-imidazol-5-yl)-1H-pyrrolo[2,3-b]pyridine] | 15 | 5
CN(C)[C@H]1C[C@@H](Cn2cnc(-c3ccc(F)cc3)c2-c2ccnc3[nH]ccc23)C1 [Preparative Example 89] | 59 | 70
CN(C)[C@H]1CC[C@@H](n2cnc(-c3ccc(F)cc3)c2-c2ccnc3[nH]ccc23)CC1 [Preparative Example 90] | 23 | 52
